Here are results for two compounds from patent publication US20230065562A1, “DUAL CONTROLS FOR THERAPEUTIC CELL ACTIVATION OR ELIMINATION” (Bellicum Pharmaceuticals, Inc., priority 2015, published 2023).

The structures appear in SMILES notation.

For data set [1], the system named is T cells expressing ΔC9 alone (pBP1501). Kind of data set: T cell killing assay with caspase 3/7 green reagent monitored by IncuCyte, negative control ΔC9. The conditions noted are these: increasing doses, FIG. 108B. The format is cell-based, human.
From the text: To determine the functionality of these switches in activated T cells, retroviral supernatants were produced and transduced into PBMCs activated from 3 separate donors.
Data set [2] deals with iC9 T cells (pBP0220, GFP-Fluc). Kind of data set: In vivo apoptotic activation in NSG mice, iC9 T cells (IVIS imaging, spleen FACS). More on the design: species or system mouse. The protocol: (§1) PBMCs from donor 676 were activated and co-transduced with one of the off-switches and GFP-Fluc retroviruses. Eleven days after transduction, cells were analyzed for transduction efficiency with GFP and anti-CD3/anti-CD19 antibodies (FIG. 109A). […] The CD19^+ MFI for the different T cell populations were: iC9=15.07, iRC9=14.38, and iRmC9=13.39. The cells were collected, counted, washed, and resuspended at 1×10^6 cells in 100 μl PBS for each tail vein mouse injection (Table 10) (time=−18 hr). […] IVIS imaging was performed at −14, 0, 5, 24 and 29 hours. Mice were sacrificed and spleens were collected for FACS analysis with hCD3, hCD19 and mCD45 antibodies. […] The higher percentage of remaining iRmC9 T cells observed may be due to an artifact of normalizing the no drug group.
PBMCs from donor 676 were activated and co-transduced with retroviruses encoding the pBP0220, 1310, 1327 vectors and the GFP-Fluc plasmid. (FIG. 109A) Eleven days post transduction, the cells were analyzed for CD19 and GFP transduction efficiency prior to injection into mice. (FIGS. 109B & C) NSG mice were injected i.v. with 107 T cells co-transduced with GFP-Fluc per mouse and suicide drugs were injected i.p. the next day. Bioluminescence of cells was assessed at −14, 0, 5, 24, and 29 hours post-drug administration. […]

The test system of data set [3] is iRmC9 T cells (pBP1327, GFP-Fluc). Kind of data set: In vivo apoptotic activation in NSG mice, iRmC9 T cells (IVIS imaging, spleen FACS). Further details: species or system mouse. The conditions noted are these: 5 mg/kg rimiducid or 10 mg/kg rapamycin i.p. As for the experimental part: as §1
PBMCs from donor 676 were activated and co-transduced with retroviruses encoding the pBP0220, 1310, 1327 vectors and the GFP-Fluc plasmid. (FIG. 109A) Eleven days post transduction, the cells were analyzed for CD19 and GFP transduction efficiency prior to injection into mice. (FIGS. 109B & C) NSG mice were injected i.v. with 107 T cells co-transduced with GFP-Fluc per mouse and suicide drugs were injected i.p. the next day. Bioluminescence of cells was assessed at −14, 0, 5, 24, and 29 hours post-drug administration. (FIG. 109D) At 29-h post-drug treatment, mice were euthanized and spleens were collected for flow cytometry analysis with antibodies to hCD3, […], and mCD45

The test system of data set [4] is HLA-B7+Bob-1+ U266 multiple myeloma. Kind of data set: iMC-Bob-1 TCR cytotoxicity and IL-2 secretion against U266. The format is cell-based. The text has this: FIG. 120: (A) iMC-Bob-1 TCR-mediated cytotoxicity against HLA-B7^+Bob-1^+ U266 multiple myeloma is rimiducid-independent. […] Go156 TCR is a negative control TCR.
Data set [5] concerns the target iRC9 (pBP1310 & 1311) (Homo sapiens, UniProt P42345+P62942). The data set is described as follows: SRα-SEAP assay of drug specificity, iRC9 switch, 293 cells. The note with it: SRα-SEAP reporter, FIG. 108A.
Data set [6] concerns iCasp9-transduced MSCs. Kind of data set: Apoptosis studies in vitro in iCasp9-ΔCD19 transduced MSCs. The format is cell-based, human. As for the experimental part:
Undifferentiated MSCs. The chemical inducer of dimerization (CID) (AP20187; ARIAD Pharmaceuticals, Cambridge, Mass.) was added at 50 nM to iCasp9-transduced MSCs cultures in complete medium. Apoptosis was evaluated 24 hours later by FACS analysis, after cell harvest and staining with annexin V-PE and 7-AAD in annexin V binding buffer (BD Biosciences, San Diego, Calif.). Control iCasp9-transduced MSCs were maintained in culture without exposure to CID.
Differentiated MSCs. Transduced MSCs were differentiated as presented above. At the end of the differentiation period, CID was added to the differentiation media at 50 nM. Cells were stained appropriately for the tissue being studied, as presented above, and a contrast stain (methylene azure or methylene blue) was used to evaluate the nuclear and cytoplasmic morphology. In parallel, tissues were processed for terminal deoxynucleotidyl-transferase dUTP nick end labeling (TUNEL) assay as per manufacturer instructions (In Situ Cell Death Detection Kit, Roche Diagnostics, Mannheim, Germany). For each time point, four random fields were photographed at a final magnification of 40× and the images were analyzed with ImageJ software version 1.430 (NIH, Bethesda, Md.). Cell density was calculated as the number of nuclei (DAPI positivity) per unit of surface area (in mm^2). The percentage of apoptotic cells was determined as the ratio of the number of nuclei with positive TUNEL signal (FITC positivity) to the total number of nuclei. Controls were maintained in culture without CID.

Sequence of iRC9 (pBP1310 & 1311) (P42345 2025-2113): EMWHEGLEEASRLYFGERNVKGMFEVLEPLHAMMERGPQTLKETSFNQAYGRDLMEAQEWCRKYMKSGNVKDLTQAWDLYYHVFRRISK
Sequence of iRC9 (pBP1310 & 1311) (P62942 2-107): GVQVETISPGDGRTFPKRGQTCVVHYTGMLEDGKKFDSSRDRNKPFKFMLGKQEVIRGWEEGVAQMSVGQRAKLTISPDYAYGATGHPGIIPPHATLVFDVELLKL
Sequence of iRC9 (pBP1310 & 1311) (P55211 135-416 partner limits assumed): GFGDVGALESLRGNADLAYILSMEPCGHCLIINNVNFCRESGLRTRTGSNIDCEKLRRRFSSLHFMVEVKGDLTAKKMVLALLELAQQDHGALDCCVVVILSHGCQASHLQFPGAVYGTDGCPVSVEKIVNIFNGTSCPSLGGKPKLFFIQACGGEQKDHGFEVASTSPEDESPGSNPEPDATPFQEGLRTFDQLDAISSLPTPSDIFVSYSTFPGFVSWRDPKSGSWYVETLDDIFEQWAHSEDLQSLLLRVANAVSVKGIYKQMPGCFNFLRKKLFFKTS

As for `CC[C@H](C(=O)N1CCCC[C@H]1C(=O)O[C@H](CCc1ccc(OC)c(OC)c1)c1cccc(OCC(=O)NCCNC(=O)COc2cccc([C@@H](CCc3ccc(OC)c(OC)c3)OC(=O)[C@@H]3CCCCN3C(=O)[C@@H](CC)c3cc(OC)c(OC)c(OC)c3)c2)c1)c1cc(OC)c(OC)c(OC)c1` [rimiducid], the “activity of negative control ΔC9 alone (pBP1501) in T cells” value in data set [1] is listed as “not active”. Besides, the “iC9 T cells remained in splenocytes compared to no drug- or rapamycin-treated groups” value in data set [2] (5 mg/kg rimiducid i.p., spleen FACS, FIG. 109D) is approximately 20%. Besides, the “removal of iC9 T cells / bioluminescence signal (IVIS imaging)” value in data set [2] (NSG mice, 5 mg/kg rimiducid or 10 mg/kg rapamycin i.p., FIGS. 109B & C) is on record as “induced significant removal”. In data set [3] (spleen FACS, FIG. 109D), the “iRmC9 T cells remained in splenocytes (normalized to no drug group)” value is recorded as approximately 50%. In addition, the “removal of iRmC9 T cells (IVIS imaging)” value in data set [3] (NSG mice, FIGS. 109B & C) is “induced significant removal”. Also, the “iMC-Bob-1 TCR-mediated cytotoxicity against U266” value in data set [4] (FIG. 120A) is given as “rimiducid-independent”. Also, the “IL-2 secretion, Bob-1 TCR with rimiducid-driven iMC costimulation, U266” value in data set [4] (FIG. 120B) is “maximal IL-2 secretion”. Besides, in data set [5], the “ligand required to activate the iRC9 switch” value was more than 100 nM.

Regarding `CC[C@H](C(=O)N1CCCC[C@H]1C(=O)O[C@H](CCc1ccc(OC)c(OC)c1)c1cccc(OCC(=O)NCC(CNC(=O)COc2cccc([C@@H](CCc3ccc(OC)c(OC)c3)OC(=O)[C@@H]3CCCCN3C(=O)[C@@H](CC)c3cc(OC)c(OC)c(OC)c3)c2)CN(C)C)c1)c1cc(OC)c(OC)c(OC)c1` [AP20187], in data set [6] (CID 50 nM), the “apoptosis index of iCasp9-negative cells” value is reported as 20±7% and the “apoptotic death of iCasp9-positive cells within 24 hrs” value is listed as 93±1%. Further, in data set [6] (CID 50 nM, 24 hours, FACS), the “annexin positive, negative population (iCasp neg/CID)” value is recorded as 19% and the “annexin positive, non-transduced control MSC (Control/CID)” value is recorded as 15%. Also, the “cell density after 24 hours” value in data set [6] (adipocytic differentiated iCasp9-positive cells, 50 nM CID, from 584) is on record as less than 14 cells/mm^2. Besides, the “apoptotic cells among magnetically immunoselected iCasp9-CD19-positive cells” value in data set [6] (after exposure to CID) is on record as “More than 95%”.
